As a reminder, the IC50 is the concentration at which inhibition is half-maximal. Low values mean inhibition by little substance, high ones a need for much substance.

human DGAT2 (hDGAT2), sequence (Q96PD7 whole entry): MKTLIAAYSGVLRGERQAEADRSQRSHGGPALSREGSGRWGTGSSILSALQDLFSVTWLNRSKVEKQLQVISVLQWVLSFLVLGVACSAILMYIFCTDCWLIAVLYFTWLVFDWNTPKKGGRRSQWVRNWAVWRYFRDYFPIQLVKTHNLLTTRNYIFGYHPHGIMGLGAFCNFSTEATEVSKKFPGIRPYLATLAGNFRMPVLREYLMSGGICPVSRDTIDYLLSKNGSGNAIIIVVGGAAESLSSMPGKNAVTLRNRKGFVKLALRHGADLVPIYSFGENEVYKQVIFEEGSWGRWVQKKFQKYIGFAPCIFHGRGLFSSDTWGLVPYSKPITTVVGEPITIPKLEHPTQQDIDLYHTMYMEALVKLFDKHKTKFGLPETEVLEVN

The target in the test is human DGAT2 (hDGAT2) (Homo sapiens (Human), UniProt Q96PD7). Briefly: DGAT2 enzymatic activity assay (triolein formation, LC/MS/MS). The format is biochemical. As to conditions: Sf-9 membrane prep expressing hDGAT2; 25 μM diolein, 10 μM oleoyl-CoA; triolein by LC/MS/MS. The method, then:
Sf-9 insect cells were maintained in Grace's insect cell culture medium with 10% heated-inactivated fetal bovine serum, 1% Pluronic F-68 and 0.14 μg/ml Kanamycine sulfate in Erlenmeyer flasks at 28° C. in a shaker incubator. After infection with untagged baculovirus expressing human DGAT2 (hDGAT2) at multiplicity of infection (MOI) 0.1 for 48 hours, cells were harvested. Cell pellets were suspended in buffer containing 10 mM Tris-HCl (pH 7.5), 1 mM EDTA (pH 8.0), 250 mM sucrose and Complete Protease Inhibitor Cocktail (Roche Diagnostics Corp., Indianapolis, Ill.), and sonicated on ice. Membrane fractions were isolated by ultracentrifugation (100,000×g pellet), resuspended in the same buffer, and frozen (−80° C.) for later use. The protein concentration was determined with the BCA Protein Assay kit (Pierce Biotechnology Inc., Rockford, Ill.). Expression of protein levels was analyzed by immunoblotting with goat polyclonal DGAT2 antibody C-15 and donkey anti-goat IgG HRP (Santa Cruz Biotechnology, Inc., Santa Cruz, Calif.) followed by detection with ECL reagent (GE Healthcare, Piscataway, N.J.).
LC/MS/MS analyses were performed using Thermal Fisher's LX4-TSQ Vantage system. This system consists of an Agilent binary high-performance liquid chromatography (HPLC) pumps and a TSQ Vantage triple quadrupole MS/MS instrument. For each sample, 2 μL samples from the top organic layer of in-plate liquid-liquid extraction were injected onto a Thermo Betabasic C4 column (2.1 mm×20 mm, 5 μm particle size). The samples were then eluted using the following conditions; mobile phase: methanol/water with 0.1% ammonium format=92/8 (v/v), flow rate: 1 mL/min, temperature: 25 C. Data was acquired in positive mode using a heated electrospray ionization (HESI) interface. The operational parameters for the TSQ Vantage MS/MS instrument were a spray voltage of 3000 V, capillary temperature of 280° C., vaporizer temperature 400° C., shealth gas 60 arbitrary unit, Aux gas 40 arbitrary units, S-lens 113 and collision gas 0.16 Pascals. […] (SRM) chromatograms of triolein (Q1:902.9>Q3:602.3) and internal standard (Q1:902.9>Q3:602.3) were collected for 40 sec. The peak area was integrated by Xcalibur Quan software. The ratio between the triolein generated in the reaction and spiked in internal standard was used to generate percentage inhibition and IC50 values. Compound percentage inhibition was calculated by the following formula: Inhibition %/=1−[(compound response−low control)/(high control−low control)]×100%. Potent compounds were titrated and IC50 were calculated by 4 parameter sigmoidal curve fitting formula.
DGAT2 activity was determined by measuring the amount of enzymatic product triolein (1,2,3-Tri(cis-9-octadecenoyl)glycerol) using the membrane prep mentioned above. The assay was carried out in deep well 384 plates in a final volume of 40 μL at rt. The assay mixture contained the following: assay buffer (100 mM Tris.Cl, pH 7.0, 20 mM MgCl2, 5% ethanol), 25 μM of diolein, 10 μM of oleoyl-CoA and 10 ng/μL of DGAT2 membrane.
In turn, `CC1(NC(=O)c2ccc3c(-c4ccccc4Cl)cn(-c4ncc(F)cn4)c3c2)CCS(=O)(=O)C1` (single isomer, unassigned; enantiomer b) [Example 15-B, 3-(2-chlorophenyl)-1-(5-fluoropyrimidin-2-yl)-N-(3-methyl-1,1-dioxidotetrahydrothiophen-3-yl)-1H-indole-6-carboxamide (enantiomer B, slow)] displayed an IC50 of 28 nM.

As to `O=C(NC1CCS(=O)(=O)C1)c1ccc2c(-c3cccc(OC(F)F)c3)cn(-c3ccc(F)cc3)c2c1` (racemic) [Example 39, 3-[3-(difluoromethoxy)phenyl]-N-(1,1-dioxidotetrahydrothiophen-3-yl)-1-(4-fluorophenyl)-1H-indole-6-carboxamide (racemic)], it took 1.1 nM to reach half-maximal inhibition (IC50).

Consider `O=C(NC1CCS(=O)(=O)C1)c1ccc2c(-c3ccccc3Cl)cn(-c3ccc(F)cc3)c2c1` (racemic) [Example 2, 3-(2-Chlorophenyl)-N-(1,1-dioxidotetrahydrothiophen-3-yl)-1-(4-fluorophenyl)-1H-indole-6-carboxamide], for which the IC50 turned out to be 66 nM.

For `CC1(NC(=O)c2ccc3c(-c4cccc(C5CC5)c4)cn(-c4ccc(F)cn4)c3c2)CCS(=O)(=O)C1` (single isomer, unassigned; enantiomer b) [Example 12-B, 3-(3-cyclopropylphenyl)-1-(5-fluoropyridin-2-yl)-N-(3-methyl-1,1-dioxidotetrahydrothiophen-3-yl)-1H-indole-6-carboxamide (enantiomer B)], the IC50 was found to be 0.73 nM.

`Cc1c(-c2ccccc2Cl)c2ccc(C(=O)NC3(C)CCS(=O)(=O)C3)cc2n1-c1ccc(F)cc1` (single isomer, unassigned; enantiomer b) [Example 8-B, 3-(2-chlorophenyl)-1-(4-fluorophenyl)-2-methyl-N-(3-methyl-1,1-dioxidotetrahydrothiophen-3-yl)-1H-indole-6-carboxamide (Enantiomer B)] registered an IC50 of 692 nM.

`CC1(NC(=O)c2ccc3c(-c4cccc(C5CC5)c4)cn(-c4ccc(F)cn4)c3c2)CCS(=O)(=O)C1` (single isomer, unassigned; enantiomer a) [Example 12-A, 3-(3-cyclopropylphenyl)-1-(5-fluoropyridin-2-yl)-N-(3-methyl-1,1-dioxidotetrahydrothiophen-3-yl)-1H-indole-6-carboxamide (enantiomer A)] gave a half-inhibitory concentration (IC50) of 0.79 nM.

In turn, `O=C(NC1CCS(=O)(=O)C1)c1ccc2c(-c3cccc(OC(F)F)c3)cn(-c3ccc(F)cn3)c2c1` (single isomer, unassigned; enantiomer a) [Example 13-A, 3-(3-(difluoromethoxy)phenyl)-N-(1,1-dioxidotetrahydrothiophen-3-yl)-1-(5-fluoropyridin-2-yl)-1H-indole-6-carboxamide (enantiomer A)] gave an IC50 of 1.8 nM.

`O=C(NC1CCS(=O)(=O)C1)c1ccc2c(-c3ccccc3)cn(-c3ccc(F)cc3)c2c1` (racemic) [Example 43, N-(1,1-dioxidotetrahydrothiophen-3-yl)-1-(4-fluorophenyl)-3-phenyl-1H-indole-6-carboxamide (racemic)]: the concentration for half-maximal inhibition (IC50) turned out to be 55 nM.

The compound `C[C@@H](NC(=O)c1ccc2c(-c3ccccc3Cl)cn(-c3ccc(F)cc3)c2c1)c1ccc(C(F)(F)F)nc1` [Example 7, (R)-3-(2-chlorophenyl)-1-(4-fluorophenyl)-N-(1-(6-(trifluoromethyl)pyridin-3-yl)ethyl)-1H-indole-6-carboxamide] gave an IC50 of 671 nM.

As for `O=C(NC1CCS(=O)(=O)C1)c1ccc2c(-c3cccc(OC(F)(F)F)c3)cn(-c3ccc(F)cc3)c2c1` (racemic) [Example 58, N-(1,1-dioxidotetrahydrothiophen-3-yl)-1-(4-fluorophenyl)-3-[3-(trifluoromethoxy)phenyl]-1H-indole-6-carboxamide (racemic)], the concentration for half-maximal inhibition (IC50) came to 14 nM.

As for `O=C(NC1CCS(=O)(=O)C1)c1ccc2c(-c3cccc(Cl)c3)cn(-c3ccc(F)cc3)c2c1` (racemic) [Example 31, 3-(3-chlorophenyl)-N-(1,1-dioxidotetrahydrothiophen-3-yl)-1-(4-fluorophenyl)-1H-indole-6-carboxamide (racemic)], the IC50 was found to be 28 nM.

`Cc1ccnc(-c2cn(-c3ccc(F)cc3)c3cc(C(=O)NC4(C)CCS(=O)(=O)C4)ccc23)c1` (racemic) [Example 24, 1-(4-fluorophenyl)-N-(3-methyl-1,1-dioxidotetrahydrothiophen-3-yl)-3-(4-methylpyridin-2-yl)-1H-indole-6-carboxamide (racemic)]: the IC50 is 571 nM.

Compound `CC1(NC(=O)c2ccc3c(-c4ccccc4Cl)cn(-c4ccc(F)cc4)c3c2)CCS(=O)(=O)C1` (racemic) [Example 1, 3-(2-chlorophenyl)-1-(4-fluorophenyl)-N-(3-methyl-1,1-dioxidotetrahydrothiophen-3-yl)-1H-indole-6-carboxamide] yielded an IC50 of 8.8 nM.

`COC(=O)c1cc(-c2cn(-c3ccc(F)cc3)c3cc(C(=O)NC4CCS(=O)(=O)C4)ccc23)cs1` (racemic) [Example 60, methyl 4-{6-[(1,1-dioxidotetrahydrothiophen-3-yl)carbamoyl]-1-(4-fluorophenyl)-1H-indol-3-yl}thiophene-2-carboxylate (racemic)] returned an IC50 of 175 nM.

`O=C(NC1CCS(=O)(=O)C1)c1ccc2c(-c3cccc(O)c3)cn(-c3ccc(F)cc3)c2c1` (racemic) [Example 59, N-(1,1-dioxidotetrahydrothiophen-3-yl)-1-(4-fluorophenyl)-3-(3-hydroxyphenyl)-1H-indole-6-carboxamide (racemic)]: half-maximal inhibition (IC50) was put at 492 nM.

`O=C(NC1CCS(=O)(=O)C1)c1ccc2c(-c3ccccc3Cl)cn(-c3ccc(F)cc3)c2c1` (single isomer, unassigned) [Example 2-A, 3-(2-chlorophenyl)-N-(1,1-dioxidotetrahydrothiophen-3-yl)-1-(4-fluorophenyl)-1H-indole-6-carboxamide] returned an IC50 of 171 nM.

In the case of `COc1ccccc1-c1cn(-c2ccc(F)cc2)c2cc(C(=O)NC3CCS(=O)(=O)C3)ccc12` (racemic) [Example 29, N-(1,1-dioxidotetrahydrothiophen-3-yl)-1-(4-fluorophenyl)-3-(2-methoxyphenyl)-1H-indole-6-carboxamide (racemic)], the IC50 is 223 nM.

`CC1(NC(=O)c2ccc3c(-c4cccc(OC(F)F)c4)cn(-c4ccc(F)cn4)c3c2)CCS(=O)(=O)C1` (single isomer, unassigned; enantiomer a) [Example 10-A, 3-(3-(difluoromethoxy)phenyl)-1-(5-fluoropyridin-2-yl)-N-(3-methyl-1,1-dioxidotetrahydrothiophen-3-yl)-1H-indole-6-carboxamide (enantiomer A)] displayed an IC50 of 0.94 nM.

`CC(=O)Nc1cccc(-c2cn(-c3ccc(F)cc3)c3cc(C(=O)NC4CCS(=O)(=O)C4)ccc23)c1` (racemic) [Example 37, 3-[3-(acetylamino)phenyl]-N-(1,1-dioxidotetrahydrothiophen-3-yl)-1-(4-fluorophenyl)-1H-indole-6-carboxamide (racemic)] displayed an IC50 of 163 nM.

`O=C(NC1CCS(=O)(=O)C1)c1ccc2c(-c3cc(Cl)ccn3)cn(-c3ccc(F)cc3)c2c1` (racemic) [Example 21, 3-(4-chloropyridin-2-yl)-N-(1,1-dioxidotetrahydrothiophen-3-yl)-1-(4-fluorophenyl)-1H-indole-6-carboxamide (racemic)] displayed an IC50 of 252 nM.

`O=C(NC1CCS(=O)(=O)C1)c1ccc2c(-c3c(Cl)cccc3Cl)cn(-c3ccc(F)cc3)c2c1` (racemic) [Example 47, 3-(2,6-dichlorophenyl)-N-(1,1-dioxidotetrahydrothiophen-3-yl)-1-(4-fluorophenyl)-1H-indole-6-carboxamide (racemic)] had a half-inhibitory concentration (IC50) of 942 nM.

Consider `O=C(NC1CCS(=O)(=O)C1)c1ccc2c(-c3cccc(C4CC4)c3)cn(-c3ncc(F)cn3)c2c1` (single isomer, unassigned; enantiomer a) [Example 17-A, 3-(3-cyclopropylphenyl)-N-(1,1-dioxidotetrahydrothiophen-3-yl)-1-(5-fluoropyrimidin-2-yl)-1H-indole-6-carboxamide (enantiomer A)], for which the IC50 stood at 3.3 nM.
